Assay results reported in US20230085307A1, “PYRIDAZINONE COMPOUND AND HERBICIDE” (NISSAN CHEMICAL CORPORATION, priority 2019, published 2023).

How the values were obtained:
[1] = system: oval-leafed pondweed; test: Test Example 1: herbicidal activity, application before weed generation under submerged conditions (Table 16, symbol C); assay type: in vivo, oval-leafed pondweed (Monochoria vaginalis); conditions: 320 g/ha applied herbicide
How it was run: (§1)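 Submerged Wagner pots (alluvial soil, 4 cm water) sown with weed seeds and planted with 2.5-leaf rice seedlings; emulsifiable concentrate diluted in water applied to water surface on sowing day. Held in greenhouse at 25-30 °C; injury scored 0-5 by herbicidal rate after three weeks.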

[2] = system: Japanese bulrush; test: Test Example 2: herbicidal activity, application during weed generation under submerged conditions (Table 17, symbol B); assay type: in vivo, Japanese bulrush (Schoenoplectus juncoides); conditions: AAH 320 g/ha; application during weed generation, submerged conditions
How it was run: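 Steps: fill Wagner pots with alluvial soil; add water to give 4 cm depth; sow the species mixed; grow under glass at 25–30° C.; at 1–2 leaves apply water-diluted emulsion formulation to the water surface at a fixed herbicide amount; score after 3 weeks.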

[3] = system: southern crabgrass; test: Test Example 5: herbicidal effect by foliage application, plastic box (Table 20, symbol F); assay type: in vivo, southern crabgrass (Digitaria ciliaris); conditions: foliage application, 320 g/ha, 3 weeks after application
How it was run: (§2)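 Post-emergence foliar test in sterilized diluvial soil. Compound applied as water-diluted emulsion at a predetermined rate to 14-day-old plants; evaluation at three weeks.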

[4] = system: redroot pigweed; test: Test Example 4: herbicidal effect by soil treatment (Table 19, symbol N); assay type: in vivo, redroot pigweed (Amaranthus retroflexus); conditions: for herbicidal effect rating, N: redroot pigweed: 320 g/ha; for N: redroot pigweed, herbicidal effect rating: AAH 320 g/ha
How it was run: (§3)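 Emulsion of test compound, water-diluted to predetermined amount, sprayed on soil after sowing (seed depth ~1.5 cm, sterilized diluvial soil). Greenhouse, 25–30° C. Effect graded at three weeks post-spray.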

[5] = system: blackgrass; test: Test Example 5: herbicidal effect by foliage application, plastic box (Table 20, symbol J); assay type: in vivo, blackgrass (Alopecurus myosuroides); conditions: foliage application, 320 g/ha, 3 weeks after application
How it was run: as §2

[6] = system: Italian ryegrass; test: Test Example 5: herbicidal effect by foliage application, plastic box (Table 20, symbol K); assay type: in vivo, Italian ryegrass (Lolium multiflorum); conditions: foliage application, 320 g/ha, 3 weeks after application
How it was run: as §2

[7] = system: green foxtail; test: Test Example 5: herbicidal effect by foliage application, plastic box (Table 20, symbol G); assay type: in vivo, green foxtail (Setaria viridis); conditions: foliage application, 320 g/ha, 3 weeks after application
How it was run: as §2

[8] = system: velvetleaf; test: Test Example 4: herbicidal effect by soil treatment (Table 19, symbol M); assay type: in vivo, velvetleaf (Abutilon theophrasti); conditions: for herbicidal effect rating, M: velvetleaf: 320 g/ha; for M: velvetleaf, herbicidal effect rating: AAH 320 g/ha
How it was run: as §3

[9] = system: green foxtail; test: Test Example 4: herbicidal effect by soil treatment (Table 19, symbol G); assay type: in vivo, green foxtail (Setaria viridis); conditions: for herbicidal effect rating, G: green foxtail: 320 g/ha; for G: green foxtail, herbicidal effect rating: AAH 320 g/ha
How it was run: as §3

[10] = system: rice flat sedge; test: Test Example 3: herbicidal effect by foliage application, Wagner pot (Table 18, symbol E); assay type: in vivo, rice flat sedge (Cyperus iria); conditions: 320 g/ha
How it was run: (§4)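 Plants were sown in alluvial soil held under 0.1–0.5 cm standing water and grown 14 days in a greenhouse at 25–30 °C. An emulsifiable formulation, water-diluted to the set dose, was then sprayed onto the foliage, and effects were scored three weeks later using previously defined criteria.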

[11] = system: chickweed; test: Test Example 4: herbicidal effect by soil treatment (Table 19, symbol P); assay type: in vivo, common chickweed (Stellaria media); conditions: for herbicidal effect rating, P: chickweed: 320 g/ha; for P: chickweed, herbicidal effect rating: AAH 320 g/ha
How it was run: as §3

[12] = system: barnyard grass; test: Test Example 3: herbicidal effect by foliage application, Wagner pot (Table 18, symbol H); assay type: in vivo, barnyard grass (Echinochloa crus-galli); conditions: 320 g/ha
How it was run: as §4

[13] = system: barnyard grass; test: Test Example 4: herbicidal effect by soil treatment (Table 19, symbol H); assay type: in vivo, barnyard grass (Echinochloa crus-galli); conditions: for herbicidal effect rating, H: barnyard grass: 320 g/ha; for H: barnyard grass, herbicidal effect rating: AAH 320 g/ha
How it was run: as §3

[14] = system: late watergrass; test: Test Example 1: herbicidal activity, application before weed generation under submerged conditions (Table 16, symbol A); assay type: in vivo, late watergrass (Echinochloa oryzicola); conditions: 320 g/ha applied herbicide
How it was run: as §1

Row | SMILES | Herbicidal effect on C: oval-leafed pondweed (grade 0-5) [1] | herbicidal effect rating, B: Japanese bulrush [2] | effect on southern crabgrass (F) [3] | herbicidal effect rating, N: redroot pigweed [4] | effect on blackgrass (J) [5] | effect on Italian ryegrass (K) [6] | effect on green foxtail (G) [7] | herbicidal effect rating, M: velvetleaf [8] | herbicidal effect rating, G: green foxtail [9] | herbicidal effect on E (rice flat sedge), rating 0-5 [10] | herbicidal effect rating, P: chickweed [11] | herbicidal effect on H (barnyard grass), rating 0-5 [12] | herbicidal effect rating, H: barnyard grass [13] | Herbicidal effect on A: late watergrass (grade 0-5) [14] | N: redroot pigweed, herbicidal effect rating [4] | M: velvetleaf, herbicidal effect rating [8] | G: green foxtail, herbicidal effect rating [9] | P: chickweed, herbicidal effect rating [11] | H: barnyard grass, herbicidal effect rating [13]
1 | Cc1nn(C)c(=O)c(-c2c(-c3ccc(OC4CCCC4)cc3)sc3ccc(F)cc23)c1O [2-039] | 5 (Herbicidal rate of 90% or more (almost completely withered)) | 0 (Herbicidal rate of 5% or less (almost no effect)) | 4 (Herbicidal rate of 70% or more and less than 90%) | 3 (Herbicidal rate of 40% or more and less than 70%) | 1 (Herbicidal rate of 5% or more and less than 20%) | 1 (Herbicidal rate of 5% or more and less than 20%) | 5 (Herbicidal rate of 90% or more (almost completely withered)) | 0 (Herbicidal rate of 5% or less (almost no effect)) | 0 (Herbicidal rate of 5% or less (almost no effect)) | 3 (Herbicidal rate of 40% or more and less than 70%) | 3 (Herbicidal rate of 40% or more and less than 70%) | 5 (Herbicidal rate of 90% or more (almost completely withered)) | 0 (Herbicidal rate of 5% or less (almost no effect)) | 3 (Herbicidal rate of 40% or more and less than 70%) | – | – | – | – | –
2 | Cc1nn(C)c(=O)c(-c2c(-c3ccc(OC(F)F)cc3)sc3ccccc23)c1O [1-201] | 1 (Herbicidal rate of 5% or more and less than 20%) | 3 (Herbicidal rate of 40% or more and less than 70%) | 0 (Herbicidal rate of 5% or less (almost no effect)) | – | 4 (Herbicidal rate of 70% or more and less than 90%) | 5 (Herbicidal rate of 90% or more (almost completely withered)) | 5 (Herbicidal rate of 90% or more (almost completely withered)) | – | – | 5 (Herbicidal rate of 90% or more (almost completely withered)) | – | 5 (Herbicidal rate of 90% or more (almost completely withered)) | – | 3 (Herbicidal rate of 40% or more and less than 70%) | 5 (Herbicidal rate of 90% or more (almost completely withered)) | 3 (Herbicidal rate of 40% or more and less than 70%) | 5 (Herbicidal rate of 90% or more (almost completely withered)) | 4 (Herbicidal rate of 70% or more and less than 90%) | 5 (Herbicidal rate of 90% or more (almost completely withered))
3 | CCCC(=O)Oc1c(C)nn(C)c(=O)c1-c1c(-c2ccc(OC)cc2)sc2ccc(F)cc12 [2-027] | 4 (Herbicidal rate of 70% or more and less than 90%) | 4 (Herbicidal rate of 70% or more and less than 90%) | 4 (Herbicidal rate of 70% or more and less than 90%) | 5 (Herbicidal rate of 90% or more (almost completely withered)) | 2 (Herbicidal rate of 20% or more and less than 40%) | 5 (Herbicidal rate of 90% or more (almost completely withered)) | 4 (Herbicidal rate of 70% or more and less than 90%) | 3 (Herbicidal rate of 40% or more and less than 70%) | 4 (Herbicidal rate of 70% or more and less than 90%) | 5 (Herbicidal rate of 90% or more (almost completely withered)) | 4 (Herbicidal rate of 70% or more and less than 90%) | 5 (Herbicidal rate of 90% or more (almost completely withered)) | 4 (Herbicidal rate of 70% or more and less than 90%) | 4 (Herbicidal rate of 70% or more and less than 90%) | – | – | – | – | –
4 | CCCC(=O)Oc1c(C)nn(C)c(=O)c1-c1c(-c2ccccc2OC(F)(F)F)sc2ccc(F)cc12 [2-044] | 0 (Herbicidal rate of 5% or less (almost no effect)) | 3 (Herbicidal rate of 40% or more and less than 70%) | 4 (Herbicidal rate of 70% or more and less than 90%) | 5 (Herbicidal rate of 90% or more (almost completely withered)) | 0 (Herbicidal rate of 5% or less (almost no effect)) | 0 (Herbicidal rate of 5% or less (almost no effect)) | 5 (Herbicidal rate of 90% or more (almost completely withered)) | 3 (Herbicidal rate of 40% or more and less than 70%) | 4 (Herbicidal rate of 70% or more and less than 90%) | 5 (Herbicidal rate of 90% or more (almost completely withered)) | 3 (Herbicidal rate of 40% or more and less than 70%) | 3 (Herbicidal rate of 40% or more and less than 70%) | 3 (Herbicidal rate of 40% or more and less than 70%) | 3 (Herbicidal rate of 40% or more and less than 70%) | – | – | – | – | –
5 | Cc1nn(C)c(=O)c(-c2c(-c3ccc(OCC(F)F)cc3)sc3ccccc23)c1O [1-203] | 4 (Herbicidal rate of 70% or more and less than 90%) | 3 (Herbicidal rate of 40% or more and less than 70%) | 3 (Herbicidal rate of 40% or more and less than 70%) | – | 2 (Herbicidal rate of 20% or more and less than 40%) | 5 (Herbicidal rate of 90% or more (almost completely withered)) | 5 (Herbicidal rate of 90% or more (almost completely withered)) | – | – | 5 (Herbicidal rate of 90% or more (almost completely withered)) | – | 5 (Herbicidal rate of 90% or more (almost completely withered)) | – | 5 (Herbicidal rate of 90% or more (almost completely withered)) | 5 (Herbicidal rate of 90% or more (almost completely withered)) | 5 (Herbicidal rate of 90% or more (almost completely withered)) | 5 (Herbicidal rate of 90% or more (almost completely withered)) | 5 (Herbicidal rate of 90% or more (almost completely withered)) | 5 (Herbicidal rate of 90% or more (almost completely withered))
6 | CCCC(=O)Oc1c(C)nn(C)c(=O)c1-c1c(-c2ccc(OC(C)C)cc2)sc2ccc(F)cc12 [2-035] | 4 (Herbicidal rate of 70% or more and less than 90%) | 4 (Herbicidal rate of 70% or more and less than 90%) | 2 (Herbicidal rate of 20% or more and less than 40%) | 5 (Herbicidal rate of 90% or more (almost completely withered)) | 3 (Herbicidal rate of 40% or more and less than 70%) | 0 (Herbicidal rate of 5% or less (almost no effect)) | 4 (Herbicidal rate of 70% or more and less than 90%) | 3 (Herbicidal rate of 40% or more and less than 70%) | 3 (Herbicidal rate of 40% or more and less than 70%) | 5 (Herbicidal rate of 90% or more (almost completely withered)) | 3 (Herbicidal rate of 40% or more and less than 70%) | 5 (Herbicidal rate of 90% or more (almost completely withered)) | 2 (Herbicidal rate of 20% or more and less than 40%) | 5 (Herbicidal rate of 90% or more (almost completely withered)) | – | – | – | – | –
